Patent publication US20240238212A1, “LIPID COMPOUNDS AND LIPID NANOPARTICLE COMPOSITIONS” (SUZHOU ABOGEN BIOSCIENCES CO., LTD., priority 2022, published 2024)
Several values for one entry are separate records, joined by “and”; a condition that tells them apart may be missing. Identical values can stand only once. Entries after “also recorded” stand apart in the source; their conditions may differ. Like-named read-outs stand apart in the source and are kept apart here.

Legend:
[1] = Encapsulation efficiency of lipid nanoparticles (Quant-it Ribogreen RNA assay); assay type: physicochemical; conditions: LNP comprising the compound
Outline: (§1)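 LNPs of cationic lipid:DSPC:cholesterol:PEG-lipid (50:10:38.5:1.5 molar) with mRNA in 10–50 mM citrate pH 4, microfluidic mixing at 1:3 ethanol:aqueous, lipid:mRNA weight ratio ~10:1–30:1, dialysed into DPBS and 0.2 μm filtered. Size by DLS, 173° backscatter; encapsulation efficiency by Ribogreen assay.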

[2] = Lipid clearance study: lipid remaining in liver tissue by LC-MS/MS; conditions: mouse liver; for % Dose Remaining in Liver Tissue, 6 h: 6 h after 0.5 mg/kg i.v. bolus dose mRNA; for % Dose Remaining in Liver Tissue, 24 h: 24 h after 0.5 mg/kg i.v. bolus dose mRNA; for % Dose Remaining in Liver Tissue, 48 h: 48 h after 0.5 mg/kg i.v. bolus dose mRNA
Procedure: (§3) LNPs were injected into mice via the tail vein (ICR female, IV, 0.5 mg mRNA/kg), then mice were anesthetized under carbon dioxide at different time (e.g., 6 h, 24 h, and 48 h) after administration and sacrificed via cardiac puncture. Liver tissue were collected immediately, and then washed by ice-cold saline. Liver samples were weighed and homogenized in ice water bath by adding pre-chilled 20% methanol-water (v/v) at 2˜8° C. with the ratio of 1:5 (w/v). The homogenized tissue samples were stored in −90˜−60° C. freezer prior to analysis.
(§4) All liver tissue homogenate samples were allowed to thaw at room temperature. An aliquot of 50 μL of sample was added with 50 μL MgCl2 (2M), then added with ACN which contains of Verapamil, 5 ng mL-1 and Glibenclamide, 50 ng mL-1 and Diclofenac, 200 ng mL^−1 and Tolbutamide, 200 ng mL^−1 for protein precipitation, then centrifuged at 13000 rpm for 8 min. Then 100 μL of supernatant was added with 100 μL water, then vortexed well. An aliquot of 5 μL of the mixture was injected into the LC-MS/MS system.

[3] = Lipid nanoparticle size and polydispersity by dynamic light scattering; assay type: physicochemical; conditions: LNP comprising the compound
Outline: as §1

[4] = Apparent pKa of LNP formulations (TNS fluorescence assay); assay type: physicochemical; conditions: LNP formulation
Outline: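 LNPs (cationic lipid/DSPC/cholesterol/DMG-PEG 50/10/38.5/1.5 mol %) diluted to 0.1 mg/mL total lipid in citrate/phosphate/borate/NaCl buffers spanning pH 3–9 with TNS. Fluorescence (ex 325, em 435 nm) read at room temperature; pKa taken as the pH at half-maximal intensity from sigmoidal fit.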

[5] = tested on: human erythropoietin (hEPO) mRNA expression; assay: Animal Study 1: hEPO mRNA LNPs i.v. in mice, serum EPO by ELISA; assay type: in vivo; conditions: female ICR mice, 0.5 mg/kg tail vein injection, blood e.g. 6 hours post administration; relative to MC3 LNP
Outline: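 Female ICR mice aged 6-8 weeks received LNP-encapsulated hEPO mRNA at 0.5 mg/kg by tail-vein injection, with MC3 LNPs as positive control. Blood was sampled at set time points (e.g., 6 hours) and serum EPO quantified by ELISA. Values are expressed relative to MC3.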

[6] = tested on: luciferase mRNA expression; assay: Animal Study 2: luciferase mRNA LNPs i.v. in mice, optical imaging; assay type: in vivo; conditions: female Balb/c mice, 0.25 mg/kg tail vein injection, e.g. 6 hours; relative to MC3 LNP
Procedure: (§2) Lipid nanoparticles comprising compounds in the following table encapsulating mRNA encoding luciferase were systemically administered to 6-8 week old female Balb/c mice (Charles River Lab, ZheJiang) at 0.25 mg/kg dose by tail vein injection and mice blood were sampled at specific time points (e.g., 6 hours) post administration. Optical imaging was performed using the IVIS Spectrum CT device (PerkinElmer Inc., Paris, France). The luminescence level was evaluated by an ROI applied to the injection site zone (Living Image software, PerkinElmer Inc., Paris, France). In addition to the aforementioned tested groups, lipid nanoparticles comprising dilinoleylmethyl-4-dimethylaminobutyrate (other names: DLin-MC3-DMA or MC3) encapsulating luciferase mRNA were similarly administered at the same dose to age and gender comparative groups of mice as a positive control.
Characteristics of tested lipid nanoparticles, including luciferase expression levels over MC3 measured from the tested group are listed in the table below.

[7] = tested on: luciferase mRNA expression; assay: Animal Study 2: bioluminescence of dissected organs; assay type: in vivo, Balb/c mice
Procedure: as §2
Radiance of heart, liver, spleen, lung, kidney, brain and bone marrow were taken at 6 h after administration. The Dissected organs were placed on a black sheet and imaged with IVIS Spectrum CT (PerkinElmer, Hopkinton, MA). To quantify bioluminescence emission signal, identical regions of interest (ROI) were positioned to encircle each organ region, the imaging signal was quantitated as Total Flux [p/s].

[8] = mouse, in vivo
Procedure: as §3, §4

[9] = hEPO mRNA, cationic lipid/DSPC/cholesterol/PEG-lipid 50:10:38.5:1.5
[10] = dissected organ, 6 h after administration, 0.25 mg/kg i.v., ROI 1-3, 0.25 mg/kg

Structure (SMILES) | Encapsulation efficiency ([1]; hEPO mRNA) [%] | % Dose Remaining in Liver Tissue, 6 h [2] [%] | % Dose Remaining in Liver Tissue, 24 h [2] [%] | % Dose Remaining in Liver Tissue, 48 h [2] [%] | Polydispersity ([3]; hEPO mRNA) | Size (nm) [3, 9] [nm] | Apparent pKa ([4]; TNS assay (Table 2)) | EPO expression over MC3 [5] | luciferase expression over MC3 [6] | Encapsulation efficiency ([1]; luciferase mRNA) [%] | Polydispersity ([3]; luciferase mRNA) | Size (nm) ([3]; luciferase mRNA) | Apparent pKa ([4]; TNS assay (Table 3)) | further results
CCCCCCCCCCCOC(=O)CCCCCN(CCO)CCCOC(COC(=O)CCCCCCC)COC(=O)CCCCCCC [Compound 8] | 84.70 | 1.274 | 0.068 | 0 | 0.051 | 95.24 | 6.992 | C (≥0.1 and <1) | – | – | – | – | – | –
CCCCCCCC(=O)OCC(COC(=O)CCCCCCC)OCCCN(CCCOC(COC(=O)CCCCCCC)COC(=O)CCCCCCC)CCN(CCO)C1CCC1 [Compound 9] | 87.29 | 1.071 | 0.089 | 0 | 0.046 | 111.6 | 6.558 | A (≥2) | – | – | – | – | – | –
CCCCCCCCC(CCCCCC)COC(=O)CCCCCN(CCO)CCCCC(COC(=O)CCCCCCC)COC(=O)CCCCCCC (stereo not shown) [Compound 10] | 91.36 | 0.981 | 0.19 | 0.038 | 0.084 | 61.45 | 6.624 | B (≥1 and <2) | – | – | – | – | – | –
CCCCCCCCCCCCCCCCCC(=O)OCCCCCCN(CCCCC(COC(=O)CCCCCCC)COC(=O)CCCCCCC)C1CC(O)C1 (stereo not shown) [Compound 57] | – | – | – | – | – | – | – | – | A (≥2) | 90.36 | 0.026 | 86.07 | 7.046 | –
CCCCC/C=C\C/C=C\CCCCCCCC(=O)OCCCCCCN(CCCCC(COC(=O)CCCCCCC)COC(=O)CCCCCCC)C1CC(O)C1 (stereo not shown) [Compound 58] | – | – | – | – | – | – | – | – | A (≥2) | 89.76 | 0.053 | 81.27 | 6.948 | –
CCCCCCCC(=O)OCC(CCCCN(CCCCC(COC(=O)CCCCCCC)COC(=O)CCCCCCC)CCCNc1c(N(CC)CCO)c(=O)c1=O)COC(=O)CCCCCCC [Compound 60] | – | – | – | – | – | – | – | – | C (≥0.1 and <1) | 93.20 | 0.011 | 73.37 | 6.809 | –
CCCCCCCCSSCCOC(=O)CCCCCN(CCCCCO)CCCCC(COC(=O)CCCCCCC)COC(=O)CCCCCCC [Compound 76] | – | – | – | – | – | – | – | – | B (≥1 and <2) | 88.12 | 0.069 | 113.16 | 6.762 | Total Flux [p/s], Brain [7, 10]: 4.60E+06 p/s and 4.15E+06 p/s and 5.13E+06 p/s; Total Flux [p/s], Liver [7, 10]: 1.40E+09 p/s and 9.82E+08 p/s and 1.38E+09 p/s; Total Flux [p/s], Lung [7, 10]: 5.18E+06 p/s and 5.48E+06 p/s and 4.33E+06 p/s; Total Flux [p/s], bone marrow [7, 10]: 2.09E+06 p/s and 3.07E+06 p/s and 2.94E+06 p/s; luciferase expression in organs (in words) ([7]; nanoparticle comprising the compound, organs 6 h after administration): significant transduction and luciferase expression were observed in liver and spleen; also recorded: high absolute expression in the heart, spleen, lung, kidney, brain
CCCCC/C=C\C/C=C\CCCCCCCCC(CCCCCCCC/C=C\C/C=C\CCCCC)OC(=O)CCCN(C)C [MC3, dilinoleylmethyl-4-dimethylaminobutyrate] | – | – | – | – | – | – | – | – | – | – | – | – | – | % Dose Remaining in Liver Tissue, 6 h ([8]; 6 h): 69.39%; % Dose Remaining in Liver Tissue, 24 h ([8]; 24 h): 61.63%; % Dose Remaining in Liver Tissue, 48 h ([8]; 48 h): 52.47%
